The values that follow come from BindingDB's records for doi:10.1021/acs.jmedchem.0c00988 (Rapt Therapeutics, 2020).

Experiment [1] in a line: Antagonist activity at CCR4 in human CCRF-CEM cells assessed as inhibition of CCL22-mediated chemotaxis preincubated for 30 mins followed by CCL22 addition and measured after 60 mins in presence of 100% human serum by CellTiter-Glo assay. A general note: In ATP-based viability assays light output follows the ATP content of the culture.
Experiment [2] can be described thus: Antagonist activity at CCR4 in mouse Treg cells assessed as inhibition of CCL22-mediated chemotaxis preincubated for 30 mins followed by CCL22 addition and measured after 60 mins in presence of 100% mouse serum by CellTiter-Glo assay.
Experiment [3] can be described thus: Antagonist activity at CCR4 in human Treg cells assessed as inhibition of CCL22-mediated chemotaxis preincubated for 30 mins followed by CCL22 addition and measured after 60 mins in presence of 100% human serum by CellTiter-Glo assay.
A short description of experiment [4]: Antagonist activity at CCR4 in human CCRF-CEM cells assessed as inhibition of CCL17-mediated chemotaxis preincubated for 30 mins followed by CCL17 addition and measured after 60 mins in presence of 100% human serum by CellTiter-Glo assay.

As usually defined, the IC50 is the concentration needed to halve the response being measured. As for `C[C@H](c1ccc(Cl)cc1Cl)n1nc(C#N)c2ncc(N3CC([C@H]4CCCN(CCC(F)(F)F)C4)C3)nc21`, in experiment [1], the IC50 worked out at 1500 nM. Same read-out and setting: to `C[C@H](c1ccc(Cl)cc1Cl)n1nc(C#N)c2ncc(N3CC([C@H]4CCCN(CC(=O)O)C4)C3)nc21` belongs 775 nM; to `Cc1nn([C@H](C)c2ccc(Cl)cc2Cl)c2nc(N3CC([C@H]4CCCN(CCNS(=O)(=O)C(C)C)C4)C3)cnc12`, 115 nM. On to `Cc1nn([C@H](C)c2ccc(Cl)cc2Cl)c2nc(N3CC([C@H]4CCCN(CCC(=O)O)C4)C3)cnc12`, for which, in experiment [1], the IC50 is 370 nM.

Regarding `CNC(=O)c1nn([C@H](C)c2ccc(Cl)cc2Cl)c2nc(N3CC([C@H]4CCCN(CCO)C4)C3)cnc12`, the IC50 in experiment [1] amounted to 446 nM. Turning to `C[C@H](c1ccc(Cl)cc1Cl)n1nc(C#N)c2ncc(N3CC([C@H]4CCCN(CCO)C4)C3)nc21`, the IC50 came to 39 nM in experiment [2], 33 nM in experiment [3], 50 nM in experiment [1] and 64 nM in experiment [4]. Turning to `Cc1nn([C@H](C)c2ccc(Cl)cc2Cl)c2nc(N3CC([C@H]4CCCN(CCCO)C4)C3)cnc12`, the half-maximal inhibitory concentration (IC50) in experiment [1] turned out to be 109 nM.

As to `C[C@H](c1ccc(Cl)cc1Cl)n1nc(C(=O)N(C)C)c2ncc(N3CC([C@H]4CCCN(CCO)C4)C3)nc21`, in experiment [1], the IC50 was found to be 379 nM. Take `Cc1nn([C@H](C)c2ccc(Cl)cc2Cl)c2nc(N3CC([C@H]4CCCN(CCC(N)=O)C4)C3)cnc12`: the IC50 in experiment [1] was 247 nM.

On to `Cc1nn([C@H](C)c2ccc(Cl)cc2Cl)c2nc(N3CC([C@H]4CCCN(CCS(N)(=O)=O)C4)C3)cnc12`, for which the half-inhibitory concentration (IC50) in experiment [1] came to 717 nM. The same measure, in the same setting: to `Cc1nn([C@H](C)c2ccc(Cl)cc2Cl)c2nc(N3CC([C@H]4CCCN(CCCS(C)(=O)=O)C4)C3)cnc12` belongs 259 nM; to `Cc1nn([C@H](C)c2ccc(Cl)cc2Cl)c2nc(N3CC([C@H]4CCCN(CCNS(C)(=O)=O)C4)C3)cnc12`, 136 nM; to `Cc1nn([C@H](C)c2ccc(Cl)cc2Cl)c2nc(N3CC([C@H]4CCCN(CCO)C4)C3)cnc12`, 74 nM. Still for that read-out and setting: next, `CC(=O)NCCN1CCC[C@H](C2CN(c3cnc4c(C)nn([C@H](C)c5ccc(Cl)cc5Cl)c4n3)C2)C1`: 40 nM; `Cc1nn([C@H](C)c2ccc(Cl)cc2Cl)c2nc(N3CC([C@H]4CCCN(CCCC(=O)O)C4)C3)cnc12`: 559 nM; `C[C@H](c1ccc(Cl)cc1Cl)n1nc(C#N)c2ncc(N3CC([C@H]4CCCN(CCC#N)C4)C3)nc21`: 523 nM. Still for that read-out and setting: to `C[C@H](c1ccc(Cl)cc1Cl)n1nc(C#N)c2ncc(N3CC([C@H]4CCCN(Cc5cnc[nH]5)C4)C3)nc21` belongs 97 nM. On to `Cc1nn([C@H](C)c2ccc(Cl)cc2Cl)c2nc(N3CC([C@H]4CCCN(CCS(C)(=O)=O)C4)C3)cnc12`, for which, in experiment [1], the IC50 is 575 nM. Same read-out and setting: next, `Cc1nn([C@H](C)c2ccc(Cl)cc2Cl)c2nc(N3CC([C@H]4CCCN(CCNC(=O)C(C)C)C4)C3)cnc12`: 59 nM. Still for that read-out and setting: to `C[C@H](c1ccc(Cl)cc1Cl)n1nc(C#N)c2ncc(N3CC([C@H]4CCCN(CCC(=O)O)C4)C3)nc21` belongs 409 nM. Regarding `C[C@H](c1ccc(Cl)cc1Cl)n1nc(C(N)=O)c2ncc(N3CC([C@H]4CCCN(CCO)C4)C3)nc21`, in experiment [1], the half-inhibitory concentration (IC50) was found to be 36 nM. On the same count and under the same terms, to `COC(=O)NCCN1CCC[C@H](C2CN(c3cnc4c(C)nn([C@H](C)c5ccc(Cl)cc5Cl)c4n3)C2)C1` belongs 133 nM.
